According to PMC12204359, “Mechanistic Design of Cell-Penetrating Disruptors for a Phospho-Dependent Interaction” (Research Square, 2025):
Positions count from the first letter of the chain named. Positions of bridges follow the written chain, without caps; N, C: chain ends. Non-standard residues stand in square brackets, D forms with d. Residues, ends and D or L forms follow the SMILES beside them. *: point of attachment. 5FAM = O=C1OC2(c3ccc(O)cc3Oc3cc(O)ccc32)c2ccc(C(=O)*)cc21; 6FAM = O=C1OC2(c3ccc(O)cc3Oc3cc(O)ccc32)c2cc(C(=O)*)ccc21; S5 = C=CCCC[C@](C)(N)C(=O)O; AEEEA = NCCOCCOCCOCC(=O)O

How the values were obtained:
[1] = target: T1, K507A-CHC^ankle (Homo sapiens, UniProt Q00610, K507A); experiment: Fluorescence polarisation direct binding assay, K507A-CHC ankle; conditions: direct binding FP, FAM labelled peptides; CHC with K507A substitution; mean of three experiments ± SD; read-out: KD, stapled and control peptides, CHC K507A
T1 construct: we used the minimal ankle region of CHC (CHC^ankle, aa 358–574); GST (TEV-cleavable); made in house
T1 sequence (Q00610 358-574 K507A): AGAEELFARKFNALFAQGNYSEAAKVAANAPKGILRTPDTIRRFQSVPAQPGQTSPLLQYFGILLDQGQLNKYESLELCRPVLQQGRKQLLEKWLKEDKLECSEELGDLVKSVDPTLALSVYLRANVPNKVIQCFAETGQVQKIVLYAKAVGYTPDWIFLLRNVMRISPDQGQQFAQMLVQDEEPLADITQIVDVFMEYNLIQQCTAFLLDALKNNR
From the text: CHC constructs for binding studies were produced during previous work by cloning the respective CHC coding sequence of Q00610 (CLH1_HUMAN) aa 1–574 and 358–574, respectively) into a modified pGEX vector containing a TEV-cleavable GST tag[26]. Point mutations K506A and K507A were introduced by site-directed mutagenesis. GB1-TACC3 is the small protein GB1[47] fused to a short, disordered peptide sequence from human TACC3 (Q9Y6A5, aa 545–573). This hybrid sequence was cloned into a pETM6T1 vector which contains a TEV protease-cleavable N-terminal His-NusA tag.
(§1) Binding affinity of CHC and TACC3 peptides was calculated based on fluorescence polarization assays performed as reported previously, using linear and stapled FAM-TACC3 peptides corresponding to aa 549–570 of human TACC3 protein. Linear peptides were purchased from PPR (Fareham, UK); Alta Bioscience (Redditch, UK); Biomatik Corporation (Ontario, Canada). Stock solutions of peptides were 10 mM in DMSO. Binding assays were performed in triplicate in the binding buffer 20 mM HEPES pH 7.5, 150 mM NaCl, 5 mM DTT, 0.05% Tween-20. Data analysis was performed using a one-site specific binding model in Prism (GraphPad software, v10.1.0).

[2] = target: T2, CHC^ankle (clathrin heavy chain aa 358–574) (Homo sapiens, UniProt Q00610); experiment: Fluorescence polarisation direct binding assay, CHC ankle WT; conditions: direct binding FP, FAM labelled peptides; CHC WT (385–574); mean of three experiments ± SD; read-out: KD, stapled and control peptides, CHC WT
T2 construct: we used the minimal ankle region of CHC (CHC^ankle, aa 358–574); GST (TEV-cleavable); made in house
T2 sequence (Q00610 358-574): T1 sequence (Q00610 358-574 K507A) with A150K
Description: as §1

[3] = tested on: HeLa cells; experiment: Confocal microscopy of fixed HeLa cells (peptide localisation, endogenous TACC3 and CHC on mitotic spindle); format: cell-based
Description: HeLa cells grown on glass coverslips in complete growth medium and treated with 2.5, 5 and 10 μM FAM-peptides for 5 h. Cells were washed with PBS and fixed with PTEMF (20 mM PIPES, pH 6.8, 10 mM EGTA, 1 mM MgCl2, 0.2% Triton X-100 and 4% paraformaldehyde) for 10 min and permeabilized at room temperature in 0.5% Triton-X100 in PBS for 10 min. Cells were blocked in 3% BSA in PBS for 1 h and incubated overnight with primary antibodies diluted in 3% BSA/PBS buffer followed by 1 h incubation with secondary antibodies. Primary antibodies were as follows: mouse anti-CHC (X22; GTX22731; 1:250), rabbit anti-TACC3 (ab134154, Abcam; 1:500). Secondary antibodies were anti-mouse IgG Atto 594 (1:250, 76085, Merck) and anti-rabbit IgG Atto 647N antibody (1:250, 40839, Merck). Coverslips were mounted with ProLong Gold antifade reagent with DAPI (Invitrogen). Peptides were imaged using their 6-FAM fluorescent tag with a 488 nm argon laser. Imaging was performed on a Zeiss LSM880 upright confocal microscope using a 40x/1.4 NA oil objective. Z-stacks comprising of 9–13 × 1 μm sections were acquired. Images were captured using identical settings. The region of interest (~0.6 μm^2) was quantified in three different locations over the spindle, cytoplasm and in the non-cell region of background. Images were analysed using Fiji (v.2.9.0).

| Compound | Kd [1] | Kd [2] | also measured |
| --- | --- | --- | --- |
| CC(C)C[C@H](NC(=O)[C@H](C)NC(=O)[C@H](CO)NC(=O)[C@H](CCC(=O)O)NC(=O)[C@H](CCCCN)NC(=O)[C@H](Cc1ccccc1)NC(=O)c1ccc2c(c1)C(=O)OC21c2ccc(O)cc2Oc2cc(O)ccc21)C(=O)N[C@@H](CCCNC(=N)N)C(=O)N[C@@H](CCCCN)C(=O)N[C@@H](CCC(N)=O)C(=O)N[C@@H](CCC(=O)O)C(=O)N[C@@H](CC(C)C)C(=O)N[C@@H](Cc1ccc(O)cc1)C(=O)N[C@@]1(C)CCCC=CCCC[C@@](C)(C(=O)N[C@@H](CC(C)C)C(=O)N[C@@H](CC(C)C)C(=O)N[C@@H](CCCNC(=N)N)C(=O)N[C@@H](CC(=O)O)C(=O)N[C@@H](CO)C(N)=O)NC(=O)[C@H](CC(=O)O)NC(=O)[C@H](Cc2ccccc2)NC(=O)[C@H](CCCCN)NC1=O [SP5E] (5FAM-FKESALRKQELY[S5]KFD[S5]LLRDS-NH2; staple 13-17) | 146 ± 3 µM |  |  |
| CC(C)C[C@@H]1NC(=O)[C@H](C)NC(=O)[C@H](CO)NC(=O)[C@@](C)(NC(=O)[C@H](CCCCN)NC(=O)[C@H](Cc2ccccc2)NC(=O)c2ccc3c(c2)C(=O)OC32c3ccc(O)cc3Oc3cc(O)ccc32)CCCC=CCCC[C@@](C)(C(=O)N[C@@H](CCCCN)C(=O)N[C@@H](CCC(N)=O)C(=O)N[C@@H](CCC(=O)O)C(=O)N[C@@H](CC(C)C)C(=O)N[C@@H](Cc2ccc(O)cc2)C(=O)N[C@@H](CC(C)C)C(=O)N[C@@H](CCCCN)C(=O)N[C@@H](Cc2ccccc2)C(=O)N[C@@H](CC(=O)O)C(=O)N2CCC[C@H]2C(=O)N[C@@H](CC(C)C)C(=O)N[C@@H](CC(C)C)C(=O)N[C@@H](CCCNC(=N)N)C(=O)N[C@@H](CC(=O)O)C(=O)N[C@@H](CO)C(N)=O)NC1=O [SP3E] (5FAM-FK[S5]SAL[S5]KQELYLKFDPLLRDS-NH2; staple 3-7) | 22 ± 6 µM | 78 ± 3 µM |  |
| CC(C)C[C@H](NC(=O)[C@H](C)NC(=O)[C@H](CO)NC(=O)[C@H](CCC(=O)O)NC(=O)[C@H](CCCCN)NC(=O)COCCOCCOCCNC(=O)c1ccc2c(c1)C1(OC2=O)c2ccc(O)cc2Oc2cc(O)ccc21)C(=O)N[C@@H](CCCNC(=N)N)C(=O)N[C@@H](CCCCN)C(=O)N[C@@]1(C)CCCC=CCCC[C@@](C)(C(=O)N[C@@H](CCC(=O)O)C(=O)N[C@@H](Cc2ccccc2)C(=O)N[C@@H](CC(=O)O)C(=O)N2CCC[C@H]2C(=O)N[C@@H](CC(C)C)C(=O)N[C@@H](Cc2ccccc2)C(=O)N[C@@H](CCCNC(=N)N)C(=O)N[C@@H](CC(=O)O)C(=O)N[C@@H](CO)C(N)=O)NC(=O)[C@H](CC(C)C)NC(=O)[C@H](CC(C)C)NC(=O)[C@H](CCC(=O)O)NC1=O [Opt PEG3 SP TACC3] ({6FAM-AEEEA}-KESALRK[S5]ELL[S5]EFDPLFRDS-NH2; staple 8-12) |  |  | colocalisation with endogenous TACC3 on the mitotic spindle ([3]; fixed mitotic HeLa cells, FAM-labelled peptides, confocal microscopy): colocalised with endogenous TACC3 on the mitotic spindle; reduction of endogenous TACC3 levels in the mitotic spindle ([3]; metaphase HeLa cells, peptide 2.5, 5 and 10 μM, 5 h, compared to the negative control SP TACC3 peptide): up to 40% |
| CC(C)C[C@H](NC(=O)[C@H](C)NC(=O)[C@H](CO)NC(=O)[C@H](CCC(=O)O)NC(=O)[C@H](CCCCN)NC(=O)c1ccc2c(c1)C(=O)OC21c2ccc(O)cc2Oc2cc(O)ccc21)C(=O)N[C@@H](CCCNC(=N)N)C(=O)N[C@@H](CCCCN)C(=O)N[C@@H](CCC(N)=O)C(=O)N[C@@H](CCC(=O)O)C(=O)N[C@@H](CC(C)C)C(=O)N[C@@H](CC(C)C)C(=O)N[C@@H](CC(C)C)C(=O)N[C@@H](CCC(=O)O)C(=O)N[C@@H](Cc1ccccc1)C(=O)N[C@@H](CC(=O)O)C(=O)N1CCC[C@H]1C(=O)N[C@@H](CC(C)C)C(=O)N[C@@H](Cc1ccccc1)C(=O)N[C@@H](CCCNC(=N)N)C(N)=O [Opt P6 TACC3 S558E] (5FAM-KESALRKQELLLEFDPLFR-NH2; N-terminus and C-terminus assumed) |  |  | cell permeability seen by confocal imaging ([3]; fixed HeLa cells, 5 h after adding 5 μM FAM-peptide to the culture medium): not sufficiently cell permeable |

Second part, led by results:

| Kd [1] | Kd [2] | Compound | also measured |
| --- | --- | --- | --- |
| 23 ± 5 µM | 145 ± 3 µM | CC(C)C[C@H](NC(=O)[C@H](Cc1ccc(O)cc1)NC(=O)[C@H](CC(C)C)NC(=O)[C@]1(C)CCCC=CCCC[C@](C)(NC(=O)[C@H](C)NC(=O)[C@H](CO)NC(=O)[C@H](CCC(=O)O)NC(=O)[C@H](CCCCN)NC(=O)[C@H](Cc2ccccc2)NC(=O)c2ccc3c(c2)C2(OC3=O)c3ccc(O)cc3Oc3cc(O)ccc32)C(=O)N[C@@H](CCCNC(=N)N)C(=O)N[C@@H](CCCCN)C(=O)N[C@@H](CCC(N)=O)C(=O)N1)C(=O)N[C@@H](CCCCN)C(=O)N[C@@H](Cc1ccccc1)C(=O)N[C@@H](CC(=O)O)C(=O)N1CCC[C@H]1C(=O)N[C@@H](CC(C)C)C(=O)N[C@@H](CC(C)C)C(=O)N[C@@H](CCCNC(=N)N)C(=O)N[C@@H](CC(=O)O)C(=O)N[C@@H](CO)C(N)=O [SP2] (6FAM-FKESA[S5]RKQ[S5]LYLKFDPLLRDS-NH2; staple 6-10) |  |
| 23 ± 6 µM | 92 ± 3 µM | CC(C)C[C@@H]1NC(=O)[C@H](C)NC(=O)[C@H](CO)NC(=O)[C@@](C)(NC(=O)[C@H](CCCCN)NC(=O)[C@H](Cc2ccccc2)NC(=O)c2ccc3c(c2)C2(OC3=O)c3ccc(O)cc3Oc3cc(O)ccc32)CCCC=CCCC[C@@](C)(C(=O)N[C@@H](CCCCN)C(=O)N[C@@H](CCC(N)=O)C(=O)N[C@@H](CC(=O)O)C(=O)N[C@@H](CC(C)C)C(=O)N[C@@H](Cc2ccc(O)cc2)C(=O)N[C@@H](CC(C)C)C(=O)N[C@@H](CCCCN)C(=O)N[C@@H](Cc2ccccc2)C(=O)N[C@@H](CC(=O)O)C(=O)N2CCC[C@H]2C(=O)N[C@@H](CC(C)C)C(=O)N[C@@H](CC(C)C)C(=O)N[C@@H](CCCNC(=N)N)C(=O)N[C@@H](CC(=O)O)C(=O)N[C@@H](CO)C(N)=O)NC1=O [SP3D] (6FAM-FK[S5]SAL[S5]KQDLYLKFDPLLRDS-NH2; staple 3-7) |  |
